Measurements reported in patent publication US9573960B2, “Glioblastoma inhibiting compounds and their use” (Life & Brain GmbH, priority 2011, dated 2017).

Columns and labels:
[1] = tested on: self-renewing, multipotent cells among pGBMs; test: Neurosphere assay after GA or GAA pre-treatment; assay type: cell-based, human; conditions: single pre-treatment, vital cells collected at day 5
Text: In a next series of experiments we aimed to determine the influence of the compounds on the activity of tumor-initiating cells (TICs). TICs embody a severe functional consequence of intra-tumor heterogeneity as, at least in human glioblastoma, it is anticipated that they are represented by a small subpopulation of stem-like, i.e. self-renewing and multipotent cells (e.g. Sties and Rowitch, 2008; Zhou et al., 2009). In previous work, we established their frequencies in the range from 0.25 to 1% among culture passage 5-10 pGBMs (see Glas et al., 2010). To estimate potential compound-induced alterations to the pool of self-renewing and multipotent cells in pGBMs, the neurosphere assay (NSA) was applied as recently described (Scheffler et al., 2005; Glas et al., 2010). Heterogeneous pGBM samples (#'s 046, 078, 106) were exposed to the compounds, vital cells were collected at day 5, and processed under non-adherent conditions in the NSA (neurosphere assay, see methods).
The neurosphere assay was performed to estimate the frequency of self-renewing clonogenic cells according to established protocols (Glas et al., 2010; Scheffler et al., 2005). Neurospheres were quantified at 21 days in culture, triturated to a single cell suspension, and re-plated for analysis of the secondary and tertiary neurospheres. […]

pGBMs (#046) = test: Orthotopic xenotransplantation of pre-treated pGBMs; assay type: in vivo, Rag2Il2rg−/− mice; conditions: pGBMs pre-treated 5 days at IMC50, 10^6 cells into striatum, vs DMSO
Description: FIG. 18: Gambogig acid amide decreases the tumor-initiating potential of pGBMs. pGBMs (#046) were treated with IMC50 concentrations of the respective compounds for 5 days in vitro. […] surviving vital cells were subsequently collected and injected into the striatum of adult immunocompromised mice (n=5 for each experiment). (A) Kaplan-Meier curves show no significant survival advantage upon injection of pGBMs pre-treated with gambogic acid (dotted) vs. DMSO controls (solid).
Cells were harvested, counted and re-suspended in 0.1% DNase/PBS. Cellular viability was confirmed via trypan blue exclusion. 10^6 DMSO-control-, gambogic acid or gambogic acid amide-pretreated pGBMs were injected stereotactically into the striatum of 12 week old Rag2Il2rg^−/− mice (0.8 mm anterior, 2 mm lateral, 3 mm deep). Mice were monitored daily and euthanized upon presentation with signs of distress/neurological symptoms or significant weight loss. For subsequent histological analysis, brains were removed, cryoprotected, and serially cut on a cryostat (Leica) at 20 μm thickness. Every fifth section underwent routine H&E staining for histological analysis of tumor formation.

[2] = tested on: four patient-specific primary GBM cultures; test: cells; conditions: Homo sapiens, read-out: cellular viability of pGBMs, control levels
Description: (§2) Before screening, cell number was titrated for each cell line separately to ensure that cell proliferation remained in a linear-exponential phase throughout the experiment. 24 hours after seeding 2−3×10^3 cells/well into laminin/poly-L-ornithine coated 96-well plates, primary cultures were treated with 2 nM, 1 μM or 10 μM of each compound (stock solution 10 mM in DMSO). As a reference we treated cells with 50 μM and 500 μM temozolomide (TMZ, SigmaAldrich, Taufkirchen, Germany; stock solution of 100 mM in DMSO). Control cells were treated with 0.5-0.01% DMSO. Six days after application, cell viability was determined using the AlamarBlue® assay according to the manufacturers recommendations (Invitrogen, Karlsruhe, Germany). Fluorescence was measured using an Infinite200 microplate reader (Tecan, Crailsheim, Germany) at Xex=540 nm and Xem=590 nm. Experiments were performed in triplicates for each sample.
(§3) To identify cytotoxic and cytostatic compounds, we conducted in vitro drug-screening assays in four different patient-specific primary GBM cultures (see Table 1 for basic characterization of research specimens).
(§4) The compound library was screened at three different concentrations (10 μM, 1 μM, 2 nM). The relative metabolic activity was determined after a 5-day incubation with compounds. […] For reference, we applied 50 μM (reported plasma peak concentration) and 500 μM of temozolomide (TMZ, as described in Beier et al., 2008), the current standard chemotherapeutic GBM drug to our cells. […] However, “hits” in the setting of a primary screening were defined as a reduction of the relative metabolic activity under the level of 50% of DMSO-treated control cells.

[3] = tested on: patient-specific primary human glioblastoma cells (pGBMs); test: Pharmacodynamic analysis of GAA and GA, AlamarBlue (IMC50); assay type: cell-based; conditions: for inhibition of the metabolic activity of pGBMs: FIG. 14A
Description: To validate the results obtained from primary screening, these compounds were purchased from independent suppliers (FIG. 13). Pharmacodynamic analysis was conducted by determining the concentrations that decreased the metabolic activity of pGBMs to 50% control levels (IMC50). […] For further analysis, pGBMs were collected at five days following single-dose in vitro application of the respective compound.
(§1) Considering the cellular and genetic diversity that characterizes GBM, we next investigated GAA's pharmacological effect in 17 pGBM samples derived from 11 patients (see Table 2 for list of samples and patient data). […] Next, pair-wise comparison of GAA-pharmacodynamics was performed in pGBMs to stratify results according to key clinical constellations (Bredel et al., 2011; Glas et al., 2010; Simpson et al., 2006; Weller et al., 2010). Glioblastoma samples derived from (i) the tumor center vs. periphery region of the same patient, (ii) primary vs. recurrent disease of the same patient, (iii) MGMT-promoter hypermethylated vs. unmethylated tissue, (iv) p53 wild type vs. p53 mutated samples, as well as from (v) NFKBIA wild type vs. NFKBIA deleted genotypes.
For pharmacodynamic analysis, 5×10^4 cells were plated in 12-well-plates at 24 hours before application of compound-series. […] Experiments were performed in triplicates. IMC50 was defined as the compound concentration that reduced the metabolic activity by 50% compared to control conditions and determined via data analysis in GraphPad Prism 4.0.

[4] = tested on: CD133+ vs. CD133− pGBM cells; test: CD133+ vs CD133- pGBM cells, metabolic activity and cell confluency; assay type: cell-based, human; conditions: IMC50, 5 days after single exposure
Text: FIG. 19: Preferred targeting of CD133^+ GBM cells by Gambogig acid amide. (A) FACS-based identification and sorting of CD133^+ subpopulations from pGBMs (#106, top; #058, bottom). Note the respective frequency of CD133^+ cells is indicated within the panel). (B) Relative metabolic activity and cell confluency of CD133-positive vs. CD133-negative pGBM cells determined at 5 days after single exposure of Gambogic acid (IMC50, top) and Gambogic acid amide (IMC50, bottom). Note the selective sensitivity of CD133^+ cells in response to application of Gambogic acid amide.
To further corroborate the cancer stem cell-specific inhibitory activity of GAA, we selected CD133-positive and -negative cell populations from pGBMs (FIG. 19). CD133^+ cells are known among glioblastoma samples to represent a minority of tumorigenic stem-like phenotypes (Singh et al., 2004). Comparative evaluation of the inhibitory effects induced by GAA and GA on CD133^+ vs. CD133^− pGBM cells confirmed our assumption.
For fluorescence-activated cell separation (FACS), cells were stained with CD133/2-PE or with CD133/2-APC (both 1:20; Miltenyi Biotech) and sorted on a BD FACS DiVa Cell Sorter (Becton Dickinson).

[5] = tested on: LN229, T98G, U87, U138, and U373 cells; test: Pharmacodynamic analysis in commercial glioma/GBM cell lines; assay type: cell-based; conditions: compared with pGBM IMC50's
Description: as §1
For pharmacodynamic analysis, 5×10^4 cells were plated in 12-well-plates at 24 hours before application of compound-series. AlamarBlue®-based analysis was conducted at 5 days post treatment. Experiments were performed in triplicates. IMC50 was defined as the compound concentration that reduced the metabolic activity by 50% compared to control conditions and determined via data analysis in GraphPad Prism 4.0.

[6] = tested on: four patient-specific primary GBM cultures; conditions: 1 μM
Description: as §2, §3, §4

Row | Structure (SMILES) | frequency of self-renewing, multipotent cells (primary, secondary, tertiary spheres) [1] | survival of animals that received pre-treated pGBMs (pGBMs (#046)) | viability at 1 µM [2] | inhibition of the metabolic activity of pGBMs [3] | selective reduction of cell growth and viability among CD133+ vs CD133− cells [4] | inhibitory activity in commercial glioma/GBM cell lines [5] | cellular viability of pGBMs, control levels [6] | time of induction of inhibitory activity ([3]; day 1, 2 or 5 following exposure, versus Gambogic acid) | IC50 ([3]; pGBM #106, day 5) | IC50 ([3]; pGBM #132, day 5) | inhibitory activity compared with GA (dose-response) ([3]; triplicate analysis for each sample)
1 | CC(C)=CCC[C@]1(C)C=Cc2c(O)c3c(c(CC=C(C)C)c2O1)O[C@]12C(=C[C@@H]4C[C@H]1C(C)(C)O[C@@]2(C/C=C(/C)C(=O)O)C4=O)C3=O [GA, Gambogic acid] | no GA-induced alteration | not evident | < 50% | effectively and to a comparable degree | could not be revealed | – | – | – | – | – | –
2 | CC(C)=CCC[C@]1(C)C=Cc2c(O)c3c(c(CC=C(C)C)c2O1)O[C@]12C(=C[C@@H]4CC1C(C)(C)O[C@@]2(C/C=C(/C)C(N)=O)C4=O)C3=O [GAA, Gambogic acid amide] | considerably reduced frequency | significantly increased survival | – | effectively and to a comparable degree | significantly stronger reduction | Comparable results | below 50% | earlier time point | 514 nM | 78 nM | consistently at lower concentrations
